In the assay the target is PARP7 (Homo sapiens (Human), UniProt Q7Z3E1). Description: Enzymatic assay for inhibition of PARP7: TR-FRET displacement of biotinylated Probe A from the TIPARP active site. The format is binding. To be noted: Table A-1. Put shortly:
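Compounds were tested as dose-response series, and reactions were incubated a further 30 min at 25° C. TR-FRET was read at 320 nm excitation with 615 and 665 nm emission after a 90 μs delay. The 665/615 ratio gave the TIPARP–Probe A complex, and % inhibition was fitted against concentration.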
On the technique in general: Time-resolved FRET reads energy transfer from a long-lived donor to a nearby acceptor.

Sequence of PARP7 (Q7Z3E1 whole entry): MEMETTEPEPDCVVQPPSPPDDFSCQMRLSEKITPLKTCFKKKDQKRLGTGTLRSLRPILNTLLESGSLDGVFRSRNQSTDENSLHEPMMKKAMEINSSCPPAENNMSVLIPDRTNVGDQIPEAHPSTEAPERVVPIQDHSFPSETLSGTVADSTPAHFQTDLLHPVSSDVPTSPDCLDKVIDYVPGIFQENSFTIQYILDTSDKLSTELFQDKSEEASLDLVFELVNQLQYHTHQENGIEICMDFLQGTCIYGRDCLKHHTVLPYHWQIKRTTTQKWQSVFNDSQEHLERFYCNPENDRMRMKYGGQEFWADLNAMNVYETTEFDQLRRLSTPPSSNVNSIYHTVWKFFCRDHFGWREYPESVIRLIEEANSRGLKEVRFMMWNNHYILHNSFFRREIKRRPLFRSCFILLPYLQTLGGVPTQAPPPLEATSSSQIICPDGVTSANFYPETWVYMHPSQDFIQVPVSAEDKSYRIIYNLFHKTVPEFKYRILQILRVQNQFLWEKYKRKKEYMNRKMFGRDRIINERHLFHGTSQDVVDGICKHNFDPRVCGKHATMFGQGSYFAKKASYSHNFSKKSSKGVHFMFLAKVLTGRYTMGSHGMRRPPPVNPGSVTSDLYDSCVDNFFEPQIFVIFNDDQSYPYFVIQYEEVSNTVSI

Broadly, the IC50 is the concentration that inhibits the measured activity by half. `N#Cc1ccc(N2CCN(C(=O)/C=C/COC[C@@H]3c4ccccc4CN3c3cn[nH]c(=O)c3C(F)(F)F)CC2)nc1` [Example 79 Isomer C, 6-[4-[(2E)-4-[[(1S)-2-[6-oxo-5-(trifluoromethyl)-1,6-dihydropyridazin-4-yl]-2,3-dihydro-1H-isoindol-1-yl]methoxy]but-2-enoyl]piperazin-1-yl]pyridine-3-carbonitrile] returned a half-inhibitory concentration (IC50) of under 0.1 µM.

`N#Cc1ccc(N2CCN(C(=O)/C=C/COC[C@H]3c4ccccc4CN3c3cn[nH]c(=O)c3C(F)(F)F)CC2)nc1` [Example 79 Isomer D, 6-[4-[(2E)-4-[[(1R)-2-[6-oxo-5-(trifluoromethyl)-1,6-dihydropyridazin-4-yl]-2,3-dihydro-1H-isoindol-1-yl]methoxy]but-2-enoyl]piperazin-1-yl]pyridine-3-carbonitrile] showed a half-inhibitory concentration (IC50) of under 0.1 µM.

In turn, `O=C(COC[C@@H]1CCCN1c1cn[nH]c(=O)c1C(F)(F)F)NC1CCC(Oc2ccccn2)CC1` (stereo partly drawn) [Example 83, 2-[[(2S)-1-[6-oxo-5-(trifluoromethyl)-1,6-dihydropyridazin-4-yl]pyrrolidin-2-yl]methoxy]-N-[4-(pyridin-2-yloxy)cyclohexyl]acetamide] gave a half-inhibitory concentration (IC50) of 0.1 to 1 µM.

In the case of `O=C(CCOC[C@@H]1CCCN1c1cn[nH]c(=O)c1C(F)(F)F)NC1CCC(Oc2ccccn2)CC1` (stereo partly drawn) [Example 84, 3-[[(2S)-1-[6-oxo-5-(trifluoromethyl)-1,6-dihydropyridazin-4-yl]pyrrolidin-2-yl]methoxy]-N-[4-(pyridin-2-yloxy)cyclohexyl]propanamide], the IC50 lay in the range of 0.1 to 1 µM.

`N#Cc1ccc(NCCC(=O)Nc2cccc(OC[C@@H]3CCCN3c3cn[nH]c(=O)c3C(F)(F)F)c2)nc1` [Example 85, 3-[(5-cyanopyridin-2-yl)amino]-N-(3-[[(2S)-1-[6-oxo-5-(trifluoromethyl)-1,6-dihydropyridazin-4-yl]pyrrolidin-2-yl]methoxy]phenyl)propanamide]: the IC50 was under 0.1 µM.

Molecule `C=CC(=O)Nc1cccc(OC[C@@H]2CCCN2c2cn[nH]c(=O)c2C(F)(F)F)c1` [Example 86, N-(3-[[(2S)-1-[6-oxo-5-(trifluoromethyl)-1,6-dihydropyridazin-4-yl]pyrrolidin-2-yl]methoxy]phenyl)prop-2-enamide] had an IC50 of 0.1 to 1 µM.

In turn, `N#Cc1ccc(NCCC(=O)Nc2cncc(OC[C@@H]3CCCN3c3cn[nH]c(=O)c3C(F)(F)F)c2)nc1` [Example 87, 3-[(5-cyanopyridin-2-yl)amino]-N-(5-[[(2S)-1-[6-oxo-5-(trifluoromethyl)-1,6-dihydropyridazin-4-yl]pyrrolidin-2-yl]methoxy]pyridin-3-yl)propanamide] registered a half-inhibitory concentration (IC50) of under 0.1 µM.

Consider `N#Cc1ccc(N2CCN(C(=O)COCC[C@@H]3CCCN3c3cn[nH]c(=O)c3C(F)(F)F)CC2)nc1` [Example 88, (S)-6-(4-(2-(2-(1-(6-oxo-5-(trifluoromethyl)-1,6-dihydropyridazin-4-yl)pyrrolidin-2-yl)ethoxy)acetyl)piperazin-1-yl)nicotinonitrile], for which the IC50 is under 0.1 µM.

`N#Cc1ccc(N2CCN(C(=O)CNCC[C@@H]3CCCN3c3cn[nH]c(=O)c3C(F)(F)F)CC2)nc1` [Example 89, 6-[4-[2-([2-[(2S)-1-[6-oxo-5-(trifluoromethyl)-1,6-dihydropyridazin-4-yl]pyrrolidin-2-yl]ethyl]amino)acetyl]piperazin-1-yl]pyridine-3-carbonitrile] returned an IC50 of under 0.1 µM.

`N#Cc1ccc(N2CCN(CCCOC[C@@H]3CCCN3c3cn[nH]c(=O)c3C(F)(F)F)CC2)nc1` [Example 90] came in with a half-maximal inhibitory concentration (IC50) of under 0.1 µM.

Molecule `CN(CC[C@@H]1CCCN1c1cn[nH]c(=O)c1C(F)(F)F)CC(=O)N1CCN(c2ccc(C#N)cn2)CC1` [Example 91] registered an IC50 of 0.1 to 1 µM.

The molecule `N#Cc1ccc(N2CCN(C(=O)C3CCC(OCC4CCN(c5cn[nH]c(=O)c5C(F)(F)F)C4)CC3)CC2)nc1` (centres unmarked) [Example 97, 6-[4-[4-([1-[6-oxo-5-(trifluoromethyl)-1,6-dihydropyridazin-4-yl]pyrrolidin-3-yl]methoxy)cyclohexanecarbonyl]piperazin-1-yl]pyridine-3-carbonitrile] had an IC50 of under 0.1 µM.

Take `N#Cc1ccc(OC2CCC(NC(=O)CCOC[C@@H]3CCCN3c3cn[nH]c(=O)c3C(F)(F)F)CC2)nc1` (stereo partly drawn) [Example 99, N-(4-[(5-cyanopyridin-2-yl)oxy]cyclohexyl]-3-[[(2S)-1-[6-oxo-5-(trifluoromethyl)-1,6-dihydropyridazin-4-yl]pyrrolidin-2-yl]methoxy]propanamide]: the IC50 lay within 0.1 to 1 µM.

`C[C@@H]1CN(c2ccc(C#N)cn2)CCN1C(=O)CCOC[C@@H]1CCCN1c1cn[nH]c(=O)c1C(F)(F)F` [Example 100A, 6-[(3R)-3-methyl-4-(3-[[(2S)-1-[6-oxo-5-(trifluoromethyl)-1,6-dihydropyridazin-4-yl]pyrrolidin-2-yl]methoxy]propanoyl)piperazin-1-yl]pyridine-3-carbonitrile]: the concentration for half-maximal inhibition (IC50) was under 0.1 µM.

Molecule `C[C@H]1CN(c2ccc(C#N)cn2)CCN1C(=O)CCOC[C@@H]1CCCN1c1cn[nH]c(=O)c1C(F)(F)F` [Example 100B, 6-[(3S)-3-methyl-4-(3-[[(2S)-1-[6-oxo-5-(trifluoromethyl)-1,6-dihydropyridazin-4-yl]pyrrolidin-2-yl]methoxy]propanoyl)piperazin-1-yl]pyridine-3-carbonitrile] came in with an IC50 of under 0.1 µM.

The molecule `N#Cc1ccc(N2CC3CCC2CN3C(=O)CCOC[C@@H]2CCCN2c2cn[nH]c(=O)c2C(F)(F)F)nc1` (stereo partly drawn) [Example 101, 6-[5-(3-[[(2S)-1-[6-oxo-5-(trifluoromethyl)-1,6-dihydropyridazin-4-yl]pyrrolidin-2-yl]methoxy]propanoyl)-2,5-diazabicyclo[2.2.2]octan-2-yl]pyridine-3-carbonitrile] registered an IC50 of under 0.1 µM.

In the case of `N#Cc1ccc(N2C3CCC2CN(C(=O)CCOC[C@@H]2CCCN2c2cn[nH]c(=O)c2C(F)(F)F)C3)nc1` [Example 102, 6-[3-(3-[[(2S)-1-[6-oxo-5-(trifluoromethyl)-1,6-dihydropyridazin-4-yl]pyrrolidin-2-yl]methoxy]propanoyl)-3,8-diazabicyclo[3.2.1]octan-8-yl]pyridine-3-carbonitrile], the IC50 is under 0.1 µM.

Consider `N#Cc1ccc(N2CCC3(CCN(C(=O)CCOC[C@@H]4CCCN4c4cn[nH]c(=O)c4C(F)(F)F)C3)CC2)nc1` [Example 103, 6-[2-(3-[[(2S)-1-[6-oxo-5-(trifluoromethyl)-1,6-dihydropyridazin-4-yl]pyrrolidin-2-yl]methoxy]propanoyl)-2,8-diazaspiro [4.5]decan-8-yl]pyridine-3-carbonitrile], for which the concentration for half-maximal inhibition (IC50) fell in the range of 0.1 to 1 µM.

As for `N#Cc1ccc(N2CCC3(CCN(C(=O)CCOC[C@@H]4CCCN4c4cn[nH]c(=O)c4C(F)(F)F)CC3)C2)nc1` [Example 104, 6-[8-(3-[[(2S)-1-[6-oxo-5-(trifluoromethyl)-1,6-dihydropyridazin-4-yl]pyrrolidin-2-yl]methoxy]propanoyl)-2,8-diazaspiro[4.5]decan-2-yl]pyridine-3-carbonitrile], the IC50 was at least 1 µM.

Turning to `N#Cc1ccc(N2CCC3(CC2)CN(C(=O)CCOC[C@@H]2CCCN2c2cn[nH]c(=O)c2C(F)(F)F)C3)nc1` [Example 105, 6-[2-(3-[[(2S)-1-[6-oxo-5-(trifluoromethyl)-1,6-dihydropyridazin-4-yl]pyrrolidin-2-yl]methoxy]propanoyl)-2,7-diazaspiro[3.5]nonan-7-yl]pyridine-3-carbonitrile], the IC50 lay in the range of 0.1 to 1 µM.

As to `N#Cc1ccc(N2CCCN(C(=O)CCOC[C@@H]3CCCN3c3cn[nH]c(=O)c3C(F)(F)F)CC2)nc1` [Example 106, (S)-6-(4-(3-((1-(6-oxo-5-(trifluoromethyl)-1,6-dihydropyridazin-4-yl)pyrrolidin-2-yl)methoxy)propanoyl)-1,4-diazepan-1-yl)nicotinonitrile], the half-maximal inhibitory concentration (IC50) is under 0.1 µM.

As to `N#Cc1ccc(NC2CN(C(=O)CCOC[C@@H]3CCCN3c3cn[nH]c(=O)c3C(F)(F)F)C2)nc1` [Example 107, 6-[[1-(3-[[(2S)-1-[6-oxo-5-(trifluoromethyl)-1,6-dihydropyridazin-4-yl]pyrrolidin-2-yl]methoxy]propanoyl)azetidin-3-yl]amino]pyridine-3-carbonitrile], the half-inhibitory concentration (IC50) was under 0.1 µM.

Molecule `N#Cc1ccc(N2CC3(CN(C(=O)CCOC[C@@H]4CCCN4c4cn[nH]c(=O)c4C(F)(F)F)C3)C2)nc1` [Example 108, 6-[6-(3-[[(2S)-1-[6-oxo-5-(trifluoromethyl)-1,6-dihydropyridazin-4-yl]pyrrolidin-2-yl]methoxy]propanoyl)-2,6-diazaspiro [3.3]heptan-2-yl]pyridine-3-carbonitrile] yielded a concentration for half-maximal inhibition (IC50) of 0.1 to 1 µM.

With `N#Cc1ccc(N2CCC3(CN(C(=O)CCOC[C@@H]4CCCN4c4cn[nH]c(=O)c4C(F)(F)F)C3)C2)nc1` [Example 109, 6-[2-(3-[[(2S)-1-[6-oxo-5-(trifluoromethyl)-1,6-dihydropyridazin-4-yl]pyrrolidin-2-yl]methoxy]propanoyl)-2,6-diazaspiro[3.4]octan-6-yl]pyridine-3-carbonitrile], the IC50 is 0.1 to 1 µM.

The molecule `N#Cc1ccc(N2CCC3(CCN(C(=O)CCOC[C@@H]4CCCN4c4cn[nH]c(=O)c4C(F)(F)F)C3)C2)nc1` (stereo partly drawn) [Example 111, 6-[7-(3-[[(2S)-1-[6-oxo-5-(trifluoromethyl)-1,6-dihydropyridazin-4-yl]pyrrolidin-2-yl]methoxy]propanoyl)-2,7-diazaspiro[4.4]nonan-2-yl]pyridine-3-carbonitrile] gave an IC50 of 0.1 to 1 µM.

Molecule `N#Cc1ccc(N2C[C@@H]3C[C@H]2CN3C(=O)CCOC[C@@H]2CCCN2c2cn[nH]c(=O)c2C(F)(F)F)nc1` [Example 112A, 6-[(1S,4S)-5-(3-(((S)-1-(6-oxo-5-(trifluoromethyl)-1,6-dihydropyridazin-4-yl)pyrrolidin-2-yl)methoxy)propanoyl)-2,5-diaza-bicyclo[2.2.1]heptan-2-yl)nicotinonitrile] gave an IC50 of 0.1 to 1 µM.

For the origin of these results see US10550105B2 (Ribon Therapeutics Inc., priority 2018, dated 2020).
